In PMC6273304, “Efficient Double Suzuki Cross-Coupling Reactions of 2,5-Dibromo-3-hexylthiophene: Anti-Tumor, Haemolytic, Anti-Thrombolytic and Biofilm Inhibition Studies” (Molecules, 2016):
Several values for one entry are separate records, joined by “and”; a condition that tells them apart may be missing. Equal values may be shown once.

How the values were obtained:
[1] = test system: MDA-MB-231 cells; test: MTT assay, anti-tumor activity against MDA-MB-231 cells; type: cell-based, human; conditions: 72 h treatment
Source text: (§1) Metastasis is the major reason of morbidity and mortality in cancer disease. In breast cancer patients, several tissues involving liver, lung, bone, and lymph node are affected by tumor involvement. The anti-tumor activities of all newly-synthesized thiophene derivatives were screened for human breast cancer cell lines 4T1, MDA-MB-231, and MCF-7 using MTT (3-(4,5-dimethylthiazol-2-yl)-2,5-diphenyltetrazolium bromide) assay in vitro. Cisplatin was used as a standard anti-tumor drug in this assay. […] The highest activity of 3h might have been due to the presence of electron-donating methylthio group (-SMe) on aromatic phenyl ring.
The anti-tumor activity of all newly-synthesized compounds was also examined against MDA-MB-231 breast cancer cells. […] It is likely possible that the electron-withdrawing iodo groups (-I) attached with phenyl ring might have been affecting the cytotoxicity of MDA-MB-231 cells.
(§2) In brief, 0.8 × 10^5 cells/mL were seeded in 96-well plates and were incubated in a humidified CO2 incubator overnight. The following day, serial dilution of the samples was performed with various concentration. The plates were left to incubate with the treatment for 72 h. After the designated time, 20 μL of MTT (5 mg/mL) was inserted into each of the wells and the cells were further incubated for an additional 4 h. Later, the media and the treatment were removed from all of the wells and 100 μL of DMSO was added. The absorbance plates were then read using a spectrophotometer (BioTek) at 570 nm.

[2] = test system: 4T1 cells; test: MTT assay, anti-tumor activity against 4T1 cells; type: cell-based; conditions: 72 h treatment
Source text: as §1, §2

[3] = test system: MCF-7 cells; test: MTT assay, anti-tumor activity against MCF-7 cells; type: cell-based, human
Source text: as §1
The anti-tumor activity of these compounds was also studied for MCF-7 breast cancer cell line.
as §2

[4] = test system: human blood clots; test: Anti-thrombolytic activity (in vitro clot lysis); conditions: 100 μL sample, 90 min at 37 °C
Source text: Cerebral Venous Sinus Thrombosis (CVST) is a central nervous disorder, which is a common disease caused by thrombophilia and […]. This fatal disease has been treated by the application of intravenous heparin and warfarin drugs. Now a days, this disease is usually cured by thrombolytic drugs, such as urokinase and streptokinase, which are playing a significant effect in the cure of CVST [25]. In the present study, we have explored the potential of our newly synthesized thiophene derivatives for anti-thrombolytic activity by the procedure reported elsewhere. […] This highest value of % lysis achieved by 3g can be attributed to the electron-withdrawing fluorine and chlorine groups on the aromatic ring.
The anti-thrombolytic activity of all newly-synthesized thiophene derivatives was investigated by following the previously-reported method. In a typical procedure, the sterile eppendorfs were filled with fresh venous blood taken from the human volunteers. The eppendorf tubes, which contained human blood (500 μL), were placed for 45 min at 37 °C to allow for clot formation. Once the clots were formed, the known volumes (100 μL) of sample solutions (3a–i) were added in eppendorfs having no serum in the blood samples. Basically, the serum was removed from blood prior to the clot formation stage. After the addition of samples, the tubes were incubated again for 90 min at 37 °C. For each experiment, the compound Streptokinase was used as a positive control, while water was used as a negative control. The anti-thrombolytic activity of newly-synthesized products was determined at percentage.

[5] = test system: Escherichia coli; test: Biofilm inhibition assay; type: cell-based; conditions: E. coli, 50 μM/mL, 24 h at 37 °C
Experimental: Pathogenic micro-organisms form a biofilm, which mainly causes morbidness and mortality. This biofilm consists of conglomerations of bacterial cells and secured by a polymeric substance created by itself. Several fatal infections are caused by biofilms and they are difficult to remove. The inhibition activities of all newly-synthesized thiophene derivatives (3a–i) against biofilm formation were assayed using the previously-reported method. The experimentally-determined biofilm inhibition values for all compounds are expressed in Table 3. A selected strain of Gram-negative bacteria (Escherichia coli) was used to determine the anti-bacterial activity of all new derivatives at concentration of 50 μM/mL. […] A likely possible cause of this high activity can be attributed to the electron-withdrawing substituents attached with the aromatic phenyl ring of 3d, which might have been playing a significant role for increasing the anti-bacterial activity of this compound against Gram-negative bacteria. We believe that our newly-developed thiophene-based compounds with high % inhibition values can be potentially used to control the formation of biofilms.
The newly-synthesized thiophene derivatives were assayed for their biofilm inhibition activity using the previously reported method. For these measurements, the solutions of the thiophene derivatives were prepared in ethyl acetate. In brief, about 100 μL of sample solutions (3a–i) and 100 μL nutrient broth (Oxoid, Hampshire, UK) along with bacterial suspension (20 μL) were placed on the wells of 96-well sterile culture plates. Rifampicin was used as a positive control, while nutrient broth was used as a negative control for these biofilm inhibition activity measurements. The plates were covered and incubated for 24 h at 37 °C. Each plate was washed three times by using 220 μL of phosphate-buffered solution. After washing, each plate was shaken strongly in order to remove the non-adherent bacteria. 220 μL of 99% methanol solution was used to fix the remaining bacteria from these plates, followed by the drying in hot oven. After drying, the plates were stained with […] of crystal violet with a concentration of […] for five minutes. The excess stain from these plates was removed simply by using tap water. About 220 µL glacial acetic acid (33% concentration) was used to remove the dye attached with the cells. Each well was examined for OD value with the help of the micro-plate reader (BioTek, Winooski, VT, USA) at 630 nm.

[6] = test system: red blood cells (RBCs); test: Haemolytic activity; type: cell-based; conditions: 30 min, pH 7.4
Source text: The newly-synthesized molecules (3a–i) were also examined for their hemolytic activity, following the method reported by Powell and co-workers. The standard drug Triton X-100 was employed as a reference in these measurements. […] Ding et al. reported that chloro group-containing molecules display facile haemolytic activity as compared with those compounds having a methyl group substitution on the ring.
The hemolytic activity of newly synthesized thiophene derivatives was examined by following the previously-reported method. For these measurements, the solutions of the thiophene derivatives were prepared in ethyl acetate. In brief, about 3 mL of newly-obtained heparinized blood was taken in 15 mL sterile Falcon tube, which was later centrifuged for 5 min at 850 rpm. The supernatant was removed and washed three times and was later placed at room temperature for 30 min. In order to wash the thick pellet, 5 mL of ice-cold (4 °C) phosphate-buffered saline (PBS) having pH 7.4 was employed. The same PBS buffer (20 mL) was used to maintain the cells over longer periods of time. The erythrocytes present in cells were measured and diluted with PBS buffer. Approximately 180 µL of this suspension of erythrocytes was taken along with 20 µL of sample solution (3a–i) in eppendorfs. These eppendorfs were incubated thermally at human body temperature for 30 min, followed by centrifuging at 1310 rpm again for 5 min. After significant centrifugation, the supernatant was removed and diluted with phosphate-buffered saline (900 µL) and was later placed on ice. Each sample solution (200 µL) was kept in 96-well culture plates. For each measurement, phosphate-buffered saline and 0.1% Triton X-100 were employed as negative and positive control, respectively. A quant instrument was used to observe the absorbance of all sample solutions at 576 nm.

[7] = Homo sapiens, MCF7, 72 h treatment

| Compound | IC50 [1] | IC50 [2] [µM] | IC50 ([3]; 72 h treatment) | % Lysis (clot lysis, anti-thrombolytic activity) [4] | inhibition at 50 µM [5] [%] | IC50 ([1]; Homo sapiens) [µM] | IC50 ([2]; 4T1, 72 h) [µM] | IC50 [3, 7] [µM] | % Lysis of RBC [6] [%] |
| --- | --- | --- | --- | --- | --- | --- | --- | --- | --- |
| N.N.[Cl][Pt][Cl] [Cisplatin, reference compound] | 29 µM and 29.1 µM | 21.5 | 48 µM and 48.3 µM | – | – | – | – | – | – |
| CCCCCCc1cc(-c2ccc(C)cc2)sc1-c1ccc(C)cc1 [Compound 3a, 2,5-Bis(4-methylphenyl)-3-hexylthiophene] | – | – | – | 16.25 ± 0.028% | 62.5 ± 0.038 | 36.8 ± 0.21 | 30.5 ± 0.08 | 26.2 ± 0.7 | – |
| CCCCCCc1cc(-c2cc(C)cc(C)c2)sc1-c1cc(C)cc(C)c1 [Compound 3b, 2,5-Bis(3,5-dimethylphenyl)-3-hexylthiophene] | – | – | – | 25.32 ± 0.092% | 59.48 ± 0.073 | 32.2 ± 2.73 | 30 ± 0.81 | 33.8 ± 0.29 | 4.54 ± 0.014 |
| CCCCCCc1cc(-c2ccc(OC)cc2)sc1-c1ccc(OC)cc1 [Compound 3c, 3-Hexyl-2,5-bis(4-methoxyphenyl)thiophene] | – | – | – | 41.12% and 41.12 ± 0.035% | 73.27 ± 0.023 | 40 ± 0.41 | 29.5 ± 4.3 | 35.7 ± 0.09 | 5.80 ± 0.045 |
| CCCCCCc1cc(-c2ccc(Cl)cc2)sc1-c1ccc(Cl)cc1 [Compound 3d, 2,5-Bis(4-chlorophenyl)-3-hexylthiophene] | – | – | – | 2.04 ± 0.091% | 78.85 ± 0.057 | 24.8 ± 0.56 | 22.8 ± 0.04 | 27.5 ± 0.67 | 6.66 ± 0.057 |
| CCCCCCc1cc(-c2ccc(I)cc2)sc1-c1ccc(I)cc1 [Compound 3e, 3-Hexyl-2,5-bis(4-iodophenyl)thiophene] | – | – | – | 32.42 ± 0.046% | 73.8 ± 0.032 | 22.9 ± 3.8 | 21.5 ± 3.71 | 91.4 ± 0.59 | 3.62 ± 0.024 |
| CCCCCCc1cc(-c2cc(F)cc(F)c2)sc1-c1cc(F)cc(F)c1 [Compound 3f, 2,5-Bis(3,5-difluorophenyl)-3-hexylthiophene] | – | – | – | 12.34 ± 0.073% | 69.68 ± 0.049 | 28.1 ± 0.72 | 31.5 ± 1.1 | 42.8 ± 2.87 | – |
| CCCCCCc1cc(-c2ccc(F)c(Cl)c2)sc1-c1ccc(F)c(Cl)c1 [Compound 3g, 2,5-Bis(3-chloro-4-fluorophenyl)-3-hexylthiophene] | – | – | – | 53.12% and 53.12 ± 0.063% | 75.53 ± 0.041 | 26.2 ± 0.28 | 22 ± 0.57 | 44 ± 0.17 | 15.57 ± 0.034 |
| CCCCCCc1cc(-c2ccc(SC)cc2)sc1-c1ccc(SC)cc1 [Compound 3h, 3-Hexyl-2,5-bis(4-(methylthio)phenyl)thiophene] | – | 16.1 ± 0.09 | – | 0.27 ± 0.021% | 27.12 ± 0.039 | 29.2 ± 0.04 | 16 | 35.1 ± 3.8 | – |
| CCCCCCc1cc(-c2cccc(C(C)=O)c2)sc1-c1cccc(C(C)=O)c1 [Compound 3i, 2,5-Bis(3-acetylphenyl)-3-hexylthiophene] | – | – | – | 1.84 ± 0.083% | 76.86 ± 0.083 | 36.8 ± 0.82 | 23.2 ± 0.08 | 36.8 ± 0.03 | – |
| Streptokinase [reference compound] | – | – | – | 100% | – | – | – | – | – |
